Results as given in US20160143995A1, “Method of Treating Intracellular Infection” (priority 2013, published 2016).
Read-outs that look alike come from different tables or passages of the source.

Tests used:
[1] = MTS staining for PBMC viability to measure cytotoxicity; format: cell-based, human; conditions: human, PHA-stimulated pooled PBMCs, HIV-infected, infected PBMCs, six days, MTS, unit printed only with high-test concentration, read-out: TC50 (50% cytotoxicity)
Method: (§1) Pooling (mixing) of mononuclear cells from more than one donor was used to minimize the variability observed between individual donors, which results from quantitative and qualitative differences in HIV infection and overall response to the PHA and IL-2 of primary lymphocyte populations. Each plate contains virus/cell control wells (cells plus virus) and experimental wells (drug plus cells plus virus). In this in vitro assay, PBMC viability remains high throughout the duration of the incubation period. Therefore, infected wells are used in the assessment of both antiviral activity and cytotoxicity. […] The PBMC cultures were maintained for six days following infection at 37° C., 5% CO2. After this period, cell-free supernatant samples were collected for analysis of reverse transcriptase activity. Following removal of supernatant samples, compound cytotoxicity was measured by addition of MTS to the plates for determination of cell viability. Wells were also examined microscopically and any abnormalities were noted. At assay termination, the assay plates were stained with the soluble tetrazolium-based dye MTS (CellTiter®96 Reagent, Promega) to determine cell viability and quantify compound toxicity. MTS is metabolized by the mitochondrial enzymes of metabolically active cells to yield a soluble formazan product, allowing the rapid quantitative analysis of cell viability and compound cytotoxicity. […] At termination of the assay, 10-25 μL of MTS reagent was added per well (10% final concentration based on volume) and the microtiter plates were then incubated for 4-6 hrs at 37° C., 5% CO2 to assess cell viability. Adhesive plate sealers were used in place of the lids, the sealed plate was inverted several times to mix the soluble formazan product and the plate was read spectrophotometrically at 490/650 nm with a Molecular Devices Vmax or SpectraMax Plus plate reader. […]

HIV-1JR-CSF [2] = system: HIV-1JR-CSF
HIV-1JR-CSF [3] = assay: Anti HIV efficacy evaluation in fresh human PBMCs (reverse transcriptase activity); conditions: for IC50: Human immunodeficiency virus 1, PBMC, in Homo sapiens, 144 h, read-out: IC50 (50% inhibition of virus replication)
human PBMCs = assay: MTS staining for PBMC viability to measure cytotoxicity; format: cell-based; conditions: fixed concentration (10 ng/mL) of TNF-α versus birinapant alone; within expected biological variability
Method: as §1

HBV = assay: Treatment of HBV infected mice (serum HBV DNA); format: in vivo, hepatitis B virus
[4] = system: HIV-infected (GFP+) cultured CD4+ lymphocytes; assay: FACS of living (Active-Caspase 3 negative) HIV NL4.3 infected CD4+ lymphocytes; format: cell-based, human; conditions: single dose of 10 uM, within 24 hours
[5] = system: Mycobacterium tuberculosis (strain H37Rv); assay: Mycobacterium tuberculosis infected mice, lung bacterial burden; format: in vivo
[6] = system: primary human hepatocytes infected with HBV; assay: Viability (CellTiter-Glo) of primary human hepatocytes infected in vitro with HBV; format: cell-based; conditions: forty eight hours after treatment, in the absence of TNF-α
Excerpt: Primary human hepatocytes were infected in vitro with HBV using an adenoviral delivery system as previously described (Chin R, Earnest-Silveira L, Koeberlein B, Franz S, Zentgraf H, Bowden S, Bock C-T, Torresi J. Modulation of MAPK pathways and cell cycle byreplicating hepatitis B virus: factors contributing tohepatocarcinogenesis. J Hepatology 2007;47:325-37). The delivery system included a green fluorescent protein marker so that the proportion of infected cells could be quantified. Using this system approximately 100% of hepatocytes were infected with HBV. Cells were rested for 2 days after infection and then they were treated with the indicated agents. Forty eight hours after treatment cell viability was assessed using CellTiter-Glo® (Promega, Madison Wis. USA) according to the manufacturer's protocol. This experiment was performed in triplicate and repeated 2 times using 2 independent donors. The highest CellTiter-Glo result from one of the triplicate untreated samples was used to set the 100% viability mark.

[7] = Toxicity of treatment in HBV-infected mice; format: in vivo
Method: C57BL/6 mice were infected with HBV and 6 days after infection were treated with weekly doses of birinapnat (30 mg/kg administered intraperitoneally) or vehicle control (DMSO) for a total of 3 weeks (3 doses).

Cc1cn([C@H]2C[C@H](N=[N+]=[N-])[C@@H](CO)O2)c(=O)[nH]c1=O [AZT, Zidovudine]
CC50 at 6 days ([1]; high-test concentration 1,000 nM): > 1 µM
Antiviral Index (TC50/IC50) (HIV-1JR-CSF [2]): >584
IC50 (HIV-1JR-CSF [3]): 1.71 nM

CC[C@H](NC(=O)[C@H](C)NC)C(=O)N1C[C@@H](O)C[C@H]1Cc1c(-c2[nH]c3cc(F)ccc3c2C[C@@H]2C[C@H](O)CN2C(=O)[C@H](CC)NC(=O)[C@H](C)NC)[nH]c2cc(F)ccc12 [Birinapant, birinapant]
CC50 at 6 days ([1]; high-test concentration 10 μM): 6.47 µM
increase in cytotoxicity in the presence of TNF-α (human PBMCs): 1.6 fold
reduction of HBV viral load compared to vehicle control (HBV; C57BL/6 mice, 30 mg/kg intraperitoneally weekly, after three doses): 2 logs
HBV DNA in serum (HBV; C57BL/6 mice, 39 days after the first dose, all treated mice): no detectable HBV DNA
efficacy against HBV when TNF-α is antagonized (HBV; HBV infected mice injected intraperitoneally with TNF-α antagonizing antibodies): abrogates the efficacy
HIV infected cells that die [4]: 55%
reduction in bacterial burden versus DMSO control ([5]; mice, intraperitoneal, 30 μg/g weekly x3, started 4 weeks after infection, p=0.012): 0.33 Log10 CFU/lung
macroscopic appearance of the lungs ([5]; upon dissection after three weekly doses): pink, uniform and healthier in appearance
death of primary human hepatocytes infected with HBV [6]: not effective
toxicity related to treatment [7]: No toxicity
IC50 (HIV-1JR-CSF [3]): 250 nM
increase in antiviral potency in the presence of TNF-α (HIV-1JR-CSF [3]; fixed concentration (10 ng/mL) of TNF-α versus birinapant alone): 6 fold

TNF-α
reduction in HIV replication (HIV-1JR-CSF [3]; TNF-α alone, 10 ng/mL): 35%

TRAIL: TNF-related apoptosis inducing ligand
death of primary human hepatocytes infected with HBV [6]: virtually no efficacy
